Reference: PMC7088215 (The Protein Journal, 2015)

What was measured:
[1] = molecular target: T1, SaPriA (PriA helicase) (Staphylococcus aureus, UniProt Q2G266); assay: intrinsic fluorescence quenching titration of purified SaPriA; format: binding
T1 sequence (Q2G266 1-802): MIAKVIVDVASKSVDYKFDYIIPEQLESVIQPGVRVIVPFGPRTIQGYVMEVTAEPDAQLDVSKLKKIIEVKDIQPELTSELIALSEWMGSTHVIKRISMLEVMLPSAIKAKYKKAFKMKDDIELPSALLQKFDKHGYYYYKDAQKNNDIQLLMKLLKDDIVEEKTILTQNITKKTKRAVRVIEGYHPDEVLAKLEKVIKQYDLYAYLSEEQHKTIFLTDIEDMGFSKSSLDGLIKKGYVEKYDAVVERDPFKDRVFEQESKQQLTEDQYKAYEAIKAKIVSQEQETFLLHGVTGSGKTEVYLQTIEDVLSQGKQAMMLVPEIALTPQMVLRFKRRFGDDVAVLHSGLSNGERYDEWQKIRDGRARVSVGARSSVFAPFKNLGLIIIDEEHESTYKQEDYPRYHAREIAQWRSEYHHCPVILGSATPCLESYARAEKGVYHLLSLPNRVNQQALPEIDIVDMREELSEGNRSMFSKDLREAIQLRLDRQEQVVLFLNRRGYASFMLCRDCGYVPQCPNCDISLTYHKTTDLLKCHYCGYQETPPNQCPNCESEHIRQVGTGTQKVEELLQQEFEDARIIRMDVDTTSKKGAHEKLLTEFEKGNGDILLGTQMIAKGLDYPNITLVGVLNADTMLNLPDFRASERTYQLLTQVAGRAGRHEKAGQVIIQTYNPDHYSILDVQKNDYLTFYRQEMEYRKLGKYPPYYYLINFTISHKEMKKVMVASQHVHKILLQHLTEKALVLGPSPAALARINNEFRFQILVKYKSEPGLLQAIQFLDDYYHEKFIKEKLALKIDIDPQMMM

[2] = molecular target: T1, SaPriA (PriA helicase); assay: vanadate-sensitive colorimetric ATPase assay, single concentration of […]; format: biochemical; settings: read-out: %

Compound: O=c1c(O)c(-c2ccc(O)cc2)oc2cc(O)cc(O)c12 [kaempferol]
- Kd [1]: 9.1 ± 3.2 µM

Compound: O=c1c(O)c(-c2cc(O)c(O)c(O)c2)oc2cc(O)cc(O)c12 [myricetin]
- activity at 35 µM [2]: 69%
